Experimental data taken from patent US7741347B2, “Hepatitis C virus inhibitors” (Bristol-Myers Squibb Company, priority 2007, dated 2010).

What follows are molecules tested on HCV 1b-377-neo replicon cells (assay: HCV replicon assay, wild-type cells). Conditions: Hepatitis C virus, read-out: EC50 against the HCV 1b genotype (Activity).
Format: cell-based
Procedure: An HCV Replion assay was utilized in the present disclosure, and was prepared, conducted and validated as described in commonly owned PCT/US2006/022197 and in O'Boyle et. al. Antimicrob Agents Chemother. 2005 April; 49(4): 1346-53.
HCV 1b-377-neo replicon cells were used to test representative compounds described within this disclosure as were cells resistant to compound A due to a Y2065H mutation in NS5A (described in application PCT/US2006/022197). The compounds tested were determined to have an approximately 10-fold less inhibitory activity on cells resistant to compound A than wild-type cells indicating a related mechanism of action between the two compound series. Thus, the compounds can be effective to be effective to inhibit the function of the HCV NS5A protein and are understood to be as effective in combinations as previously described in application PCT/US2006/022197 and commonly owned WO/04014852. Further, the compounds are effective against the HCV 1b genotype. It should also be understood that the compounds of the present disclosure can inhibit multiple genotypes of HCV. […] Ranges are as follows: A=1-10 μM; B=100-999 nM; C=1-99 nM; and D=10-999 pM.

**Q.** For `COC(=O)N[C@@H](C(=O)N1CCC[C@H]1c1cc(-c2ccc(-c3ccc(-c4cnc([C@@H]5CCCN5C(=O)[C@H](NC(=O)OC)c5ccccc5)[nH]4)cc3)cc2)n[nH]1)c1ccccc1` [Example 31], which EC50 is on record?
**A.** 0.01 to 0.999 nM

**Q.** With `CN(C)[C@@H](C(=O)N1CCC[C@H]1c1cc(-c2ccc(-c3ccc(-c4cnc([C@@H]5CCCN5C(=O)[C@@H](c5ccccc5)N(C)C)[nH]4)cc3)cc2)n[nH]1)c1ccccc1` [Example 32] as the molecule, how does the EC50 read?
**A.** 0.01 to 0.999 nM

**Q.** Which EC50 does the source give for `COC(=O)N[C@@H](C(=O)N1CCC[C@H]1c1ncc(-c2ccc(-c3ccc(-c4nnc([C@@H]5CCCN5C(=O)[C@H](NC(=O)OC)c5ccccc5)[nH]4)cc3)cc2)[nH]1)c1ccccc1` [Example 33] here?
**A.** 0.01 to 0.999 nM

**Q.** How did the EC50 turn out when `COC(=O)N[C@@H](C(=O)N1CCC[C@H]1c1nnc(-c2ccc(-c3ccc(-c4nnc([C@@H]5CCCN5C(=O)[C@H](NC(=O)OC)c5ccccc5)[nH]4)cc3)cc2)[nH]1)c1ccccc1` [Example 34] was run?
**A.** 0.01 to 0.999 nM

**Q.** With `CN(C)[C@@H](C(=O)N1CCC[C@H]1c1nnc(-c2ccc(-c3ccc(-c4nnc([C@@H]5CCCN5C(=O)[C@@H](c5ccccc5)N(C)C)[nH]4)cc3)cc2)[nH]1)c1ccccc1` [Example 35] as the molecule, how does the EC50 read?
**A.** 1 to 99 nM

**Q.** `COC(=O)N[C@H](C(=O)N1CCC[C@H]1c1cnc(-c2ccc(-c3ccc(-c4cnc([C@@H]5CCCN5C(=O)[C@@H](NC(=O)OC)[C@@H](C)OC)o4)cc3)cc2)[nH]1)[C@@H](C)OC` [Example 38] was tested. Which EC50 did it give?
**A.** 0.01 to 0.999 nM

Same assay, conditions: read-out: EC50 against the HCV 1b genotype (Activity)

**Q.** For `COC(=O)NC(C(=O)N1CCCC1c1cc(-c2ccc(-c3ccc(-c4cc(C5CCCN5C(=O)C(NC(=O)OC)c5ccccc5)n[nH]4)cc3)cc2)[nH]n1)c1ccccc1` [Example 30, Dimethyl-(1R,1′R)-2,2′-((2S,2′S)-2,2′-(5,5′-(biphenyl-4,4′-diyl)bis(1H-pyrazole-5,3-diyl))bis(pyrrolidine-2,1-diyl))bis(2-oxo-1-phenylethane-2,1-diyl)dicarbamate], which EC50 is on record?
**A.** 1 to 99 nM
